Data on one compound can be found in patent US20250065017A1, “Fractionating Extracellular Matrix to Modulate Bioactivity and the Host Response” (University of Pittsburgh - Of the Commonwealth System of …, priority 2014, published 2025).

Format in all cases: cell-based, human
Assay [1] deals with THP1 cells. Description: CD206 and CD86 expression by western blot. The following applies: Aspirin 200 μM with UBM hydrogel. The procedure:
THP-1 human monocytes were obtained from the American Tissue Culture Collection (ATCC, Manassas, VA) and maintained in RPMI, 10% FBS, 1% penicillin/streptomycin, 2 mM L-glutamine, and 1 mM sodium pyruvate in a humidified atmosphere at 37° C. with 5% CO2. For experiments, 500,000 THP-1 cells/mL were plated with 320 nM phorbol 12-myristate 13-acetate (PMA) for 24 hours to induce differentiation into macrophages. Adherent macrophages were washed in PBS and placed in fresh media, followed by a 24 hour incubation to acquiesce.
THP1 macrophage-like cells prepared as described in the cell culture section had 200 μM Aspirin added (where appropriate) 1 hour prior to UBM hydrogel (0.5 mg/mL) treatment. Cells were then treated with UBM hydrogel for 4, 8, or 24 hours. At the specified time points, cells were washed extensively with 1× PBS and lysis buffer (50 mM Tris, 20 mM NaCl, 1% Triton X-100) was added. Cells were mechanically removed from the culture dish, transferred to centrifuge tubes and incubated on ice for 10 minutes. Lysates were spun down at 14000 rpm for 20 minutes at 4° C. to remove any debris. The clarified lysate was stored at −80° C. Lysates were diluted 1:1 in 2× Laemmli Sample Buffer (Bio-Rad, Hercules, CA) and boiled at 95° C. for 5 minutes. Samples were then resolved on 9% SDS-PAGE gels (National Diagnostics) and transferred to polyvinyldifluoride (PVDF, Millipore) membranes. Membranes were blocked with 1:1 Odyssey Blocking Buffer:1×PBS (Licor) overnight at 4° C. Blocked membranes were immunoblotted with either rabbit anti-human COX2 (1:5,000, Abcam), goat anti-human CD206 (1:3,000, Santa-Cruz), rabbit anti-human CD86 (1:5,000, Abcam), or mouse anti-human β-Actin (1:5,000, Abcam) in blocking buffer for 1 hour at room temperature with agitation. Membranes were extensively washed with TBST before the appropriate secondary antibodies (1:10,000, donkey anti-goat IR Dye 680, donkey-anti rabbit IR Dye 680, and donkey anti-mouse IR Dye 800, Licor) in imaging buffer (1:1 Odyssey Blocking Buffer, 0.02% SDS in TBST) were added for 30 minutes with agitation. […]
On the technique in general: In western blotting, separated proteins are transferred to a membrane and probed.

Assay [2] relates to THP1 macrophage-like cells. In words: Secreted factor analysis (ELISA). The procedure:
THP-1 human monocytes were obtained from the American Tissue Culture Collection (ATCC, Manassas, VA) and maintained in RPMI, 10% FBS, 1% penicillin/streptomycin, 2 mM L-glutamine, and 1 mM sodium pyruvate in a humidified atmosphere at 37° C. with 5% CO2. For experiments, 500,000 THP-1 cells/mL were plated with 320 nM phorbol 12-myristate 13-acetate (PMA) for 24 hours to induce differentiation into macrophages. Adherent macrophages were washed in PBS and placed in fresh media, followed by a 24 hour incubation to acquiesce. […] Once cells were prepared as described above, aspirin (200 µM, where appropriate) was added for 1 hour. Subsequently, UBM hydrogel (0.5 mg/mL) or pepsin control buffer (0.05 mg/mL) was added and cells were allowed to incubate for 24-72 hours. After incubation, cells were pelleted by centrifugation (700×g, 5 minutes, 4° C.), and the culture supernatants were carefully removed. Supernatants were stored at -80° C. until the time of assay. Secreted factor concentrations in the culture supernatants were determined using commercially available ELISA kits (PGE2, PGF2α, ENZO Life Sciences) and IL-1RA (R&D Systems)) according to the manufacturer's instructions.
On the technique in general: ELISA stands for enzyme-linked immunosorbent assay.

Assay [3] has as its system THP1 macrophage-like cells. Description: COX2 expression by western blot. The following applies: Aspirin 200 μM with UBM hydrogel 0.5 mg/mL; 4, 8, 24 hours.
Experimental: Cells were then treated with UBM hydrogel for 4, 8, or 24 hours. At the specified time points, cells were washed extensively with 1× PBS and lysis buffer (50 mM Tris, 20 mM NaCl, 1% Triton X-100) was added. Cells were mechanically removed from the culture dish, transferred to centrifuge tubes and incubated on ice for 10 minutes. Lysates were spun down at 14000 rpm for 20 minutes at 4° C. to remove any debris. The clarified lysate was stored at −80° C. Lysates were diluted 1:1 in 2× Laemmli Sample Buffer (Bio-Rad, Hercules, CA) and boiled at 95° C. for 5 minutes. Samples were then resolved on 9% SDS-PAGE gels (National Diagnostics) and transferred to polyvinyldifluoride (PVDF, Millipore) membranes. Membranes were blocked with 1:1 Odyssey Blocking Buffer:1×PBS (Licor) overnight at 4° C. […]
The mark [4] stands for this setting: Aspirin 200 μM with UBM hydrogel 0.5 mg/mL, 48 hours.

Take `CC(=O)Oc1ccccc1C(=O)O` [Aspirin]: in assay [1] (at 24 hours), the “maximum increase in CD86 expression” value came to 0.15 fold and the “reduction in CD206 expression” value is 91%. For the same compound, the CD206 expression result in assay [1] (early time points) is “did not alter CD206 expression”. For the same compound, in assay [2] (setting [4]), the IL-1RA secretion result was “did not cause any significant drop in IL-1RA secretion”; the “production of PGE2 and PGF2α” value is “reduced production of both PGE2 and PGF2α down to basal levels”. For the same compound, the PGE2 production result in assay [2] (THP1, UBM hydrogel 0.5 mg/mL 48 hours, inhibitor pre-treatment 1 hour) is “reduced PGE2 production to baseline levels”. The “change in COX2 expression” value in assay [3] is reported as “did not cause any changes in COX2 expression”.
